Laboratory results as given in PubChem BioAssay (NCI).
Several values for one entry are separate records, joined by “and”; a condition that tells them apart may be missing. Equal values may be shown once.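 Cells were grown in 96-well plates and exposed to each compound for 48 hours at five concentrations; endpoints were interpolated linearly between bracketing concentrations, or set to the highest concentration if not reached. GI50 = concentration required for 50% inhibition of growth. Definition used: TGI = concentration required for complete inhibition of growth.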

Key:
Experiment in all cases: NCI anticancer screen, dose series, 48 h
U251 CNS = system: U251 CNS
CAKI-1 renal = system: CAKI-1 renal
NCI-H23 lung = system: NCI-H23 lung
SK-MEL-28 melanoma = system: SK-MEL-28 melanoma
UACC-62 melanoma = system: UACC-62 melanoma
COLO 205 colon = system: COLO 205 colon
RPMI-8226 leukemia = system: RPMI-8226 leukemia
MDA-MB-435 = system: MDA-MB-435
SNB-75 CNS = system: SNB-75 CNS
EKVX NSCLC = system: EKVX NSCLC
ACHN renal = system: ACHN renal
MALME-3M melanoma = system: MALME-3M melanoma
HOP-62 NSCLC = system: HOP-62 NSCLC
SF-295 CNS = system: SF-295 CNS
PC-3 prostate = system: PC-3 prostate
SK-OV-3 ovarian = system: SK-OV-3 ovarian

Row | SMILES | TGI (U251 CNS) [µM] | TGI (CAKI-1 renal) [µM] | TGI (NCI-H23 lung) [µM] | TGI (SK-MEL-28 melanoma) [µM] | TGI (UACC-62 melanoma) [µM] | TGI (COLO 205 colon) [µM] | TGI (RPMI-8226 leukemia) | TGI (MDA-MB-435) [µM] | TGI (SNB-75 CNS) [µM] | TGI (EKVX NSCLC) [µM] | TGI (ACHN renal) [µM] | TGI (MALME-3M melanoma) [µM] | TGI (HOP-62 NSCLC) [µM] | TGI (SF-295 CNS) [µM] | TGI (PC-3 prostate) [µM] | TGI (SK-OV-3 ovarian) [µM] | GI50 (COLO 205 colon) | GI50 (RPMI-8226 leukemia) | GI50 (ACHN renal) | GI50 (PC-3 prostate)
1 | CCOC(=O)C1C(c2ccc3c(c2)OCO3)c2c([nH][nH]c2=O)CC1(C)O (stereo not drawn) | > 100 | > 100 | > 100 | > 100 | > 100 | > 100 | > 100 µM | > 100 | > 100 | > 100 | > 100 | > 100 | > 100 | > 100 | > 100 | – | – | – | – | –
2 | CC(=O)c1ccc2c(c1)CC1(C2)Cc2cc3c(cc2C1=O)CCC3 (stereo not drawn) | > 100 | 47 | 89.1 | 48.8 | – | 31.2 | 35.2 µM | 32.4 | 41.2 | 64.8 | 58.2 | 39.3 | 81.3 | 49 | 72.2 | 96.3 | – | – | – | –
3 | CS(=O)(=O)OCC1CN(S(C)(=O)=O)c2cc(O)ccc21 (stereo not drawn) | 7.26 | 14.2 | 6.61 | 11.6 | – | 5.95 | 12.2 µM | 4.07 | 7.43 | 16 | 15.1 | 4.35 | 7.01 | 14.6 | 5.62 | – | – | – | – | –
4 | COc1cc(/C=C/c2nc(NC(=S)Nc3ccccc3)nnc2C)cc(OC)c1OC | > 100 | > 100 | 66.9 | > 100 | 51.1 | 32.2 | 67.8 µM | > 100 | – | > 100 | 48.1 | > 100 | > 100 | > 100 | > 100 | > 100 | – | – | – | –
5 | CCN1C(=O)c2cc(OC)c(OC)cc2C(=O)C12OC(=O)c1cc3c(cc12)OCO3 (stereo not drawn) | > 100 | > 100 | > 100 | > 100 | > 100 | > 100 | > 100 µM | > 100 | 48.5 | > 100 | > 100 | > 100 | > 100 | > 100 | > 100 | – | – | – | – | –
6 | COC(=O)[C@@H]1CC(C(C[N+](=O)[O-])c2ccc(O[Si](C)(C)C(C)(C)C)cc2)C(=O)N1C(=O)OC(C)(C)C (stereo partly drawn) | > 100 | > 100 | – | > 100 | – | > 100 | 72.4 µM and 95 µM | > 100 | > 100 | > 100 | > 100 | > 100 | > 100 | > 100 | > 100 | > 100 | > 100 µM and 26.2 µM | 3.2 µM and 23.7 µM | 28.1 µM and > 100 µM | > 100 µM and 34.5 µM
7 | CCOC(=O)/C(C=Nc1c(C)n(C)n(-c2ccccc2)c1=O)=C(/C)O | > 100 | > 100 | > 100 | – | > 100 | > 100 | > 100 µM | > 100 | > 100 | > 100 | > 100 | > 100 | – | > 100 | > 100 | > 100 | – | – | – | –
8 | CNC(=O)C1(N)c2ccccc2C=Cc2ccccc21 | > 100 | > 100 | > 100 | > 100 | > 100 | > 100 | > 100 µM | > 100 | – | > 100 | > 100 | > 100 | > 100 | > 100 | > 100 | > 100 | – | – | – | –
9 | O=[N+]([O-])c1cccc2nnccc12 | > 100 | 90.6 | > 100 | – | 34.2 | 34.1 | > 100 µM | 32.5 | > 100 | > 100 | 30 | 26.9 | – | > 100 | > 100 | > 100 | – | – | – | –
10 | CC(=O)Nc1ccc(C(O)/C(=N/N)c2nc3ccc(Cl)cc3[nH]c2=O)cc1 (stereo not drawn) | > 100 | > 100 | > 100 | > 100 | > 100 | > 100 | – | > 100 | > 100 | > 100 | > 100 | > 100 | > 100 | > 100 | > 100 | – | – | – | – | –
11 | O=C(NC1CCCCC1NC(c1ccccc1)(c1ccccc1)c1ccccc1)C(=O)NC1CCCCC1NC(c1ccccc1)(c1ccccc1)c1ccccc1 (stereo not drawn) | 57.4 | > 100 | > 100 | > 100 | – | > 100 | > 100 µM | > 100 | 8.65 | > 100 | > 100 | > 100 | > 100 | > 100 | > 100 | 92.8 | – | – | – | –
12 | Cc1cc(C)c(-n2[nH]c(=O)n(C)c2=O)c(C)c1 | > 100 | > 100 | > 100 | > 100 | > 100 | > 100 | > 100 µM | > 100 | > 100 | > 100 | – | > 100 | – | – | > 100 | > 100 | – | – | – | –
13 | COc1c(F)c(F)c(/C(O)=C\c2nc3ccccc3[nH]c2=O)c(F)c1F | – | > 10 | > 10 | > 10 | > 10 | > 10 | > 10 µM | > 10 | 6.01 | > 10 | – | > 10 | > 10 | > 10 | > 10 | > 10 | – | – | – | –
14 | CCC(CCCN)Nc1cc(OC)cc2c(C)ccnc12 (stereo not drawn) | – | 29.5 | – | 30.6 | – | 47.5 | – | 28 | 25.3 | 36.3 | 32.6 | 50.4 | 29.2 | 32.9 | 26.2 | 26.4 | – | – | – | –
15 | CSc1nc2c(c(=O)[nH]1)N=C(c1ccc([N+](=O)[O-])cc1)CC(c1ccccc1)N2 (stereo not drawn) | > 100 | > 100 | > 100 | > 100 | > 100 | > 100 | 57.5 µM | > 100 | 74.7 | > 100 | > 100 | > 100 | > 100 | > 100 | > 100 | – | – | – | – | –
